Test results reported in patent EP0304063B1, “Quinoline type mevalonolactones” (NISSAN CHEMICAL INDUSTRIES LTD., priority 1987, dated 1989).

System: not listed separately
Test: Test D: Acute toxicity
Details: mouse, in vivo, po; orally administered 1000 mg/kg, 0.5% CMC suspension, ICR male mice, after seven days
Procedure: A 0.5% CMC suspension of a test compound was orally administered to ICR male mice (group of three mice). The acute toxicity was determined based on the mortality after seven days. With compound I-57, I-58, I-59, I-511, I-512, I-513, I-514, I-515, I-517 and I-523 of the present invention, the mortality was 0% even when they were orally administered in an amount of 1000 mg/kg.

| SMILES | mortality at 168 h |
| --- | --- |
| CC(C)c1nc2ccccc2c(-c2ccccc2F)c1/C=C/C(O)CC(O)CC(=O)O (stereo not drawn) [Compound I-57] | 0% |
| Cc1ccc2c(-c3ccccc3)c(/C=C/C(O)CC(O)CC(=O)O)c(C(C)C)nc2c1 (stereo not drawn) [Compound I-58] | 0% |
| CC(C)c1nc2ccccc2c(-c2ccc(Cl)cc2)c1/C=C/C(O)CC(O)CC(=O)O (stereo not drawn) [Compound I-59] | 0% |
| Cc1ccc(-c2c(/C=C/C(O)CC(O)CC(=O)O)c(C(C)C)nc3ccccc23)cc1 (stereo not drawn) [Compound I-511] | 0% |
| CC(C)c1nc2ccc(Cl)cc2c(-c2ccccc2Cl)c1/C=C/C(O)CC(O)CC(=O)O (stereo not drawn) [Compound I-512] | 0% |
| CC(C)c1nc2ccccc2c(-c2ccc(C(F)(F)F)cc2)c1/C=C/C(O)CC(O)CC(=O)O (stereo not drawn) [Compound I-513] | 0% |
| Cc1cc(-c2c(/C=C/C(O)CC(O)CC(=O)O)c(C(C)C)nc3ccccc23)ccc1F (stereo not drawn) [Compound I-514] | 0% |
| Cc1cc(C)cc(-c2c(/C=C/C(O)CC(O)CC(=O)O)c(C(C)C)nc3ccccc23)c1 (stereo not drawn) [Compound I-515] | 0% |
| CCc1nc2ccccc2c(-c2ccc(F)cc2)c1/C=C/C(O)CC(O)CC(=O)O (stereo not drawn) [Compound I-517] | 0% |
| O=C(O)CC(O)CC(O)/C=C/c1c(-c2ccccc2)nc2ccc(Cl)cc2c1-c1ccccc1 (stereo not drawn) [Compound I-523] | 0% |

System: cholesterol biosynthesis in vivo
Test: Test C: Inhibition of cholesterol biosynthesis in vivo
Design: species or system Male Sprague-Dawley rats
Details: oral administration of 0.05 mg/kg, relative to the control group, rats

| SMILES | percent decrease of counts |
| --- | --- |
| O=C(O)CC(O)CC(O)/C=C/c1c(C2CC2)nc2ccccc2c1-c1ccc(F)cc1 (stereo not drawn) [Compound I-520] | 55% |

Same assay, conditions: oral administration of 10 mg/kg, relative to the control group, rats

| SMILES | percent decrease of counts |
| --- | --- |
| CC[C@H](C)C(=O)O[C@H]1C[C@H](O)C=C2C=C[C@H](C)[C@H](CC[C@@H](O)C[C@@H](O)CC(=O)O)[C@H]21 [CS-514, reference compound] | 55% |
